Measurements published in patent publication US20080025970A1, “Treatment of atherosclerosis” (priority 2004, published 2008).

Tests used:
Format in all cases: cell-based
[1] = system: adhesion of highly activated U937 cells to oxidised LDL; assay: Adhesion of highly activated U937 cells (PMA plus vitamin A and vitamin D) to oxidised LDL; settings: raft-disrupting agents; all concentrations tested; FIG. 5
Method: Plastic wells were coated with oxidised LDL, or fibronectin 10 μg/ml for 16 hrs at 4° C., and washed. Monocytes were isolated in an unactivated state from one unit of buffy coat cells by the method of Tsouknos et al^26, labelled with carboxyfluorescein for 30 mins, and washed. Inhibitors and control Ig UPC10 were added to the plates in 50 μL, and then 50 μL of cells at a final concentration of 3×10^6/ml in the assay. The plates were incubated at 37° C. for 1 hr. Non-adherent cells were removed by a standardised washing procedure, and after addition of cell suspension to 3 wells as the 100% control, the plates were measured in an automatic fluorescent spectrophotometer.
U937 cells were stimulated with PMA 10 ng/ml, plus vitamin A (1 ug/ml) and vitamin D (10^-7 M) for 16 hours, and then the assay was performed as in Example 3.
U937 cells were stimulated as in Example 5, and the experiment performed as in Example 3. The results are shown in FIG. 6, with the legend as in the previous figures. CD14, CD18, TLR-4 antibodies were all murine Igs. MOPC21:—control murine IgG1, UPC10:—control murine IgG2a.

[2] = system: adhesion of highly activated U937 cells to HSP60; assay: Adhesion of highly activated U937 cells to HSP60 coated wells; settings: at the lowest concentration tested; FIG. 9
[3] = system: adhesion of monocytes to tissue sections of atherosclerotic plaque; assay: Adhesion of monocytes to tissue sections of atherosclerotic plaque

Molecule | inhibition of activated U937 cell adhesion to oxidised LDL [1] | inhibition of binding of highly activated U937 cells to HSP60 [2] | inhibition of adhesion of monocytes to tissue sections of atherosclerotic plaque [3]
methyl cyclodextrin | near-total inhibition | – | –
C[C@@H]1[C@H](O)[C@@H](C)/C=C/C=C/CC/C=C/C=C/C=C/C=C/C(O[C@H]2O[C@H](C)[C@@H](O)[C@H](N)[C@@H]2O)CC2O[C@](O)(CC(O)C(O)CCC(O)CC(O)CC(O)CC(=O)O[C@H]1C)CC(O)C2C(=O)O (stereo partly shown) [nystatin] | near-total inhibition | – | –
C[S+](C)[O-] [DMSO, Dimethylsulphoxide] | – | highly inhibitory | inhibits adhesion
